From BigSolDB 2.1

Question: Which solubility (mole fraction) (in PEG-400, 298.15 K) does the source give for `CN1C(C(=O)Nc2ccccn2)=C(O)c2sccc2S1(=O)=O` here?
Answer: 0.0098

Question: And the solubility (mole fraction) (in PEG-400, 303.15 K)?
Answer: 0.0134

Question: What about the solubility (mole fraction) (in PEG-400, 308.15 K) of the same compound?
Answer: 0.0178

Question: What about the solubility (mole fraction) (in PEG-400, 313.15 K) of the same compound?
Answer: 0.0228

Question: What about the solubility (mole fraction) (in PEG-400, 323.15 K) of the same compound?
Answer: 0.035

Question: And the solubility (mole fraction) (in water, 298.15 K)?
Answer: 4.13e-06

Question: What about the solubility (mole fraction) (in water, 303.15 K) of the same compound?
Answer: 5.1e-06

Question: What about the solubility (mole fraction) (in water, 308.15 K) of the same compound?
Answer: 6.62e-06

Question: And the solubility (mole fraction) (in water, 313.15 K)?
Answer: 8.49e-06

Question: What about the solubility (mole fraction) (in water, 323.15 K) of the same compound?
Answer: 1.4e-05
